Assay results: article PMC4962298 (Research in Pharmaceutical Sciences, 2016)

Assays:
[1] = tested on: intestinal P-gp-mediated digoxin transport; experiment: In situ rat single-pass intestinal perfusion; assay type: in vivo; details: for increase of digoxin Peff relative to digoxin alone: rat SPIP
[2] = tested on: P-gp expression in Caco-2 cells; experiment: Western blot analysis of P-gp expression; assay type: cell-based; details: 48 h
[3] = 1 μM drug, not statistically significant

C[C@H]1O[C@@H](O[C@H]2[C@@H](O)C[C@H](O[C@H]3[C@@H](O)C[C@H](O[C@H]4CC[C@@]5(C)[C@H](CC[C@@H]6[C@@H]5C[C@@H](O)[C@]5(C)[C@@H](C7=CC(=O)OC7)CC[C@]65O)C4)O[C@@H]3C)O[C@@H]2C)C[C@H](O)[C@@H]1O [digoxin]
Peff of digoxin (20 μM) alone ([1]; rat jejunum SPIP, digoxin 20 μM, no inhibitor, n = 3, mean ± SD): 3.4 ± 0.8 × 10^-5cm/s

CN(C)C(=N)N=C(N)N [metformin]
P-gp protein levels (P-gp/β-actin) relative to the untreated control ([2]; 7000 μM drug): decreased | increase of digoxin Peff relative to digoxin alone [1, 3]: about 44% | increase of digoxin Peff relative to digoxin alone ([1]; 100 μM drug, P < 0.01): 117.6% | increase of digoxin Peff relative to digoxin alone ([1]; 7000 μM drug, P < 0.01): 167.6%

Cc1ccc(S(=O)(=O)NC(=O)NN2CC3CCCC3C2)cc1 (stereo not drawn) [gliclazide]
P-gp protein levels (P-gp/β-actin) relative to the untreated control ([2]; 500 μM drug): decreased | increase of digoxin Peff relative to digoxin alone ([1]; 0.1 μM drug, significant): about 59% | increase of digoxin Peff relative to digoxin alone ([1]; 10 μM drug, significant): ~76% | increase of digoxin Peff relative to digoxin alone ([1]; 500 μM drug, significant): ~153%

CCc1ccc(CCOc2ccc(CC3SC(=O)NC3=O)cc2)nc1 (stereo not drawn) [pioglitazone]
P-gp protein levels (P-gp/β-actin) relative to the untreated control ([2]; 300 μM drug): decreased | increase of digoxin Peff relative to digoxin alone [1, 3]: about 38% | increase of digoxin Peff relative to digoxin alone ([1]; 300 μM drug, P < 0.01): ~100%
